Data published in patent publication US20220119354A1, “DIAMINO-SUBSTITUTED PYRIDINES AND PYRIMIDINES AS HERBICIDES” (FMC Corporation, priority 2019, published 2022).

What was measured:
Assay type in all cases: in vivo
[1] = tested on: barnyardgrass (Echinochloa crus-galli); test: Test A preemergence, barnyardgrass; settings: 0 to 100 scale
Outline: (§1)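 Greenhouse pot test, loam/sand soil. Pre: directed soil spray at planting; post: foliar spray at 1–2 leaf stage (2–10 cm). Chemical in non-phytotoxic solvent + surfactant. Visual rating ~10 d, 0 = no effect, 100 = complete control.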

kochia (Kochia scoparia) [2] = test: Test A preemergence, kochia; settings: 0 to 100 scale
Outline: as §1

[3] = tested on: ragweed (common ragweed, Ambrosia elatior); test: Test A preemergence, ragweed; settings: 0 to 100 scale
Outline: as §1

[4] = tested on: ryegrass, Italian (Lolium multiflorum); test: Test A preemergence, Italian ryegrass; settings: 0 to 100 scale
Outline: as §1

[5] = tested on: foxtail, giant (Setaria faberii); test: Test A preemergence, giant foxtail; settings: 0 to 100 scale
Outline: as §1

[6] = tested on: pigweed (Amaranthus retroflexus); test: Test A preemergence, pigweed; settings: 0 to 100 scale
Outline: as §1

[7] = tested on: barnyardgrass (Echinochloa crus-galli); test: Test A postemergence, barnyardgrass; settings: 0 to 100 scale
Outline: as §1

kochia (Kochia scoparia) [8] = test: Test A postemergence, kochia; settings: 0 to 100 scale
Outline: as §1

[9] = tested on: ragweed (common ragweed, Ambrosia elatior); test: Test A postemergence, ragweed; settings: 0 to 100 scale
Outline: as §1

[10] = tested on: ryegrass, Italian (Lolium multiflorum); test: Test A postemergence, Italian ryegrass; settings: 0 to 100 scale
Outline: as §1

[11] = tested on: foxtail, giant (Setaria faberii); test: Test A postemergence, giant foxtail; settings: 0 to 100 scale
Outline: as §1

[12] = tested on: pigweed (Amaranthus retroflexus); test: Test A postemergence, pigweed; settings: 0 to 100 scale
Outline: as §1

[13] = tested on: wheat (Triticum aestivum); test: Test A postemergence, wheat; settings: 0 to 100 scale
Outline: as §1

corn (Zea mays) = test: Test A postemergence, corn; settings: 0 to 100 scale
Outline: as §1

[14] = tested on: blackgrass (Alopecurus myosuroides); test: Test A postemergence, blackgrass; settings: 0 to 100 scale
Outline: as §1

[15] = tested on: galium (catchweed bedstraw, Galium aparine); test: Test A postemergence, galium; settings: 0 to 100 scale
Outline: as §1

rice (Oryza sativa) = test: Test B flooded paddy test, rice; settings: Flood, 250 g ai/ha, applied to paddy water, 2-leaf stage, visual evaluation after 13 to 15 d
Outline: (§2)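 Growth to two leaves preceded treatment. Flooding to 3 cm above soil surface, then water-applied compound; depth kept constant. Scored visually relative to controls after 13–15 d greenhouse; 100 means full control.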

[16] = tested on: sedge, umbrella (small-flower umbrella sedge, Cyperus difformis); test: Test B flooded paddy test, umbrella sedge; settings: Flood, 250 g ai/ha, applied to paddy water, 2-leaf stage, visual evaluation after 13 to 15 d
Outline: as §2

[17] = tested on: ducksalad (Heteranthera limosa); test: Test B flooded paddy test, ducksalad; settings: Flood, 250 g ai/ha, applied to paddy water, 2-leaf stage, visual evaluation after 13 to 15 d
Outline: as §2

[18] = tested on: barnyardgrass (Echinochloa crus-galli); test: Test B flooded paddy test, barnyardgrass; settings: Flood, 250 g ai/ha, applied to paddy water, 2-leaf stage, visual evaluation after 13 to 15 d
Outline: as §2

C[C@@H](Nc1ncc(C(F)(F)F)c(N)n1)c1cc2cc(C(F)(F)F)ccc2o1 [Compound 7]
Plant response rating, Barnyardgrass ([1]; 125 g ai/ha): 0
Plant response rating, Barnyardgrass ([1]; 500 g ai/ha): 0
Plant response rating, Kochia (kochia (Kochia scoparia) [2]; 125 g ai/ha): 0
Plant response rating, Kochia (kochia (Kochia scoparia) [2]; 500 g ai/ha): 0
Plant response rating, Ragweed ([3]; 125 g ai/ha): 0
Plant response rating, Ragweed ([3]; 500 g ai/ha): 0
Plant response rating, Ryegrass, Italian ([4]; 125 g ai/ha): 0
Plant response rating, Ryegrass, Italian ([4]; 500 g ai/ha): 0
Plant response rating, Foxtail, Giant ([5]; 125 g ai/ha): 0
Plant response rating, Foxtail, Giant ([5]; 500 g ai/ha): 0
Plant response rating, Pigweed ([6]; 125 g ai/ha): 0
Plant response rating, Pigweed ([6]; 500 g ai/ha): 30
Plant response rating, Barnyardgrass ([7]; 125 g ai/ha): 0
Plant response rating, Barnyardgrass ([7]; 500 g ai/ha): 0
Plant response rating, Kochia (kochia (Kochia scoparia) [8]; 125 g ai/ha): 0
Plant response rating, Kochia (kochia (Kochia scoparia) [8]; 500 g ai/ha): 0
Plant response rating, Ragweed ([9]; 125 g ai/ha): 0
Plant response rating, Ragweed ([9]; 500 g ai/ha): 0
Plant response rating, Ryegrass, Italian ([10]; 125 g ai/ha): 0
Plant response rating, Ryegrass, Italian ([10]; 500 g ai/ha): 0
Plant response rating, Foxtail, Giant ([11]; 125 g ai/ha): 0
Plant response rating, Foxtail, Giant ([11]; 500 g ai/ha): 0
Plant response rating, Pigweed ([12]; 125 g ai/ha): 30
Plant response rating, Pigweed ([12]; 500 g ai/ha): 90
Plant response rating, Wheat ([13]; 125 g ai/ha): 0
Plant response rating, Wheat ([13]; 500 g ai/ha): 0
Plant response rating, Corn (corn (Zea mays); 125 g ai/ha): 0
Plant response rating, Corn (corn (Zea mays); 500 g ai/ha): 0
Plant response rating, Blackgrass ([14]; 125 g ai/ha): 0
Plant response rating, Blackgrass ([14]; 500 g ai/ha): 0
Plant response rating, Galium ([15]; 125 g ai/ha): 0
Plant response rating, Galium ([15]; 500 g ai/ha): 20
Plant response rating, Rice (0 to 100 scale, 0 is no effect, 100 is complete control) (rice (Oryza sativa)): 0
Plant response rating, Sedge, Umbrella (0 to 100 scale, 0 is no effect, 100 is complete control) [16]: 0
Plant response rating, Ducksalad (0 to 100 scale, 0 is no effect, 100 is complete control) [17]: 0
Plant response rating, Barnyardgrass (0 to 100 scale, 0 is no effect, 100 is complete control) [18]: 0

C[C@@H](Nc1ncc(C(F)(F)F)c(N)n1)c1cc2ccc(F)cc2o1 [Compound 8, N2-[(1R)-1-(6-fluoro-2-benzofuranyl)ethyl]-5-(trifluoromethyl)-2,4-pyrimidinediamine]
Plant response rating, Barnyardgrass ([1]; 125 g ai/ha): 0
Plant response rating, Barnyardgrass ([1]; 500 g ai/ha): 90
Plant response rating, Kochia (kochia (Kochia scoparia) [2]; 125 g ai/ha): 60
Plant response rating, Kochia (kochia (Kochia scoparia) [2]; 500 g ai/ha): 90
Plant response rating, Ragweed ([3]; 125 g ai/ha): 90
Plant response rating, Ragweed ([3]; 500 g ai/ha): 100
Plant response rating, Ryegrass, Italian ([4]; 125 g ai/ha): 0
Plant response rating, Ryegrass, Italian ([4]; 500 g ai/ha): 0
Plant response rating, Foxtail, Giant ([5]; 125 g ai/ha): 50
Plant response rating, Foxtail, Giant ([5]; 500 g ai/ha): 100
Plant response rating, Pigweed ([6]; 125 g ai/ha): 80
Plant response rating, Pigweed ([6]; 500 g ai/ha): 100
pest or weed control at 125 g/ha ([7]; Echinochloa crus-galli, post-emergence, 240 h, 125 g ai/ha, read-out: Plant response rating, Barnyardgrass): 50%
pest or weed control at 500 g/ha ([7]; Echinochloa crus-galli, post-emergence, 240 h, 500 g ai/ha, read-out: Plant response rating, Barnyardgrass): 90%
pest or weed control at 125 g/ha (kochia (Kochia scoparia) [8]; Bassia scoparia, post-emergence, 240 h, 125 g ai/ha, read-out: Plant response rating, Kochia): 80%
pest or weed control at 500 g/ha (kochia (Kochia scoparia) [8]; Bassia scoparia, post-emergence, 240 h, 500 g ai/ha, read-out: Plant response rating, Kochia): 90%
pest or weed control at 125 g/ha ([9]; Ambrosia artemisiifolia, post-emergence, 240 h, 125 g ai/ha, read-out: Plant response rating, Ragweed): 90%
pest or weed control at 500 g/ha ([9]; Ambrosia artemisiifolia, post-emergence, 240 h, 500 g ai/ha, read-out: Plant response rating, Ragweed): 90%
pest or weed control at 125 g/ha ([10]; Lolium multiflorum, post-emergence, 240 h, 125 g ai/ha, read-out: Plant response rating, Ryegrass, Italian): 0%
pest or weed control at 500 g/ha ([10]; Lolium multiflorum, post-emergence, 240 h, 500 g ai/ha, read-out: Plant response rating, Ryegrass, Italian): 0%
pest or weed control at 125 g/ha ([11]; Setaria faberi, post-emergence, 240 h, 125 g ai/ha, read-out: Plant response rating, Foxtail, Giant): 40%
pest or weed control at 500 g/ha ([11]; Setaria faberi, post-emergence, 240 h, 500 g ai/ha, read-out: Plant response rating, Foxtail, Giant): 90%
pest or weed control at 125 g/ha ([12]; Amaranthus retroflexus, post-emergence, 240 h, 125 g ai/ha, read-out: Plant response rating, Pigweed): 100%
pest or weed control at 500 g/ha ([12]; Amaranthus retroflexus, post-emergence, 240 h, 500 g ai/ha, read-out: Plant response rating, Pigweed): 100%
plant injury at 125 g/ha ([13]; Triticum aestivum, post-emergence, 240 h, 125 g ai/ha, read-out: Plant response rating, Wheat): 0%
plant injury at 500 g/ha ([13]; Triticum aestivum, post-emergence, 240 h, 500 g ai/ha, read-out: Plant response rating, Wheat): 0%
Corn plant response rating (crop injury, 0 = no effect, 100 = complete kill) at 125 g/ha (corn (Zea mays); Zea mays, post-emergence, 240 h, 125 g ai/ha): 0%
Corn plant response rating (crop injury, 0 = no effect, 100 = complete kill) at 500 g/ha (corn (Zea mays); Zea mays, post-emergence, 240 h, 500 g ai/ha): 20%
pest or weed control at 125 g/ha ([14]; Alopecurus myosuroides, post-emergence, 240 h, 125 g ai/ha, read-out: Plant response rating, Blackgrass): 20%
pest or weed control at 500 g/ha ([14]; Alopecurus myosuroides, post-emergence, 240 h, 500 g ai/ha, read-out: Plant response rating, Blackgrass): 60%
pest or weed control at 125 g/ha ([15]; Galium, post-emergence, 240 h, 125 g ai/ha, read-out: Plant response rating, Galium): 70%
pest or weed control at 500 g/ha ([15]; Galium, post-emergence, 240 h, 500 g ai/ha, read-out: Plant response rating, Galium): 90%
plant injury at 250 g/ha (rice (Oryza sativa); Oryza sativa, 360 h, read-out: Plant response rating, Rice (0 to 100 scale, 0 is no effect, 100 is complete control)): 40%
pest or weed control at 250 g/ha ([16]; Cyperus difformis, 360 h, read-out: Plant response rating, Sedge, Umbrella (0 to 100 scale, 0 is no effect, 100 is complete control)): 100%
pest or weed control at 250 g/ha ([17]; Heteranthera limosa, 360 h, read-out: Plant response rating, Ducksalad (0 to 100 scale, 0 is no effect, 100 is complete control)): 98%
pest or weed control at 250 g/ha ([18]; Echinochloa crus-galli, 360 h, read-out: Plant response rating, Barnyardgrass (0 to 100 scale, 0 is no effect, 100 is complete control)): 0%
